# In patent publication US12139492B2 (Endotarget Inc., priority 2021, dated 2024):
# Where two headings read alike, the source gives them in different places.
# What was measured:
# JeKo-1 cells = assay: Antiproliferative effect, MTS cell viability assay, JeKo-1 cells; type: cell-based; conditions: Homo sapiens; JeKo-1 mantle cell lymphoma cells; read-out: IC50 (anti-proliferation) JeKO-1 cells
# Protocol: (§1) Antiproliferative effect of the exemplary compounds was assessed in B-cell malignancy models.
# (§2) To assess the effect of the exemplary compounds on cell viability in B-cell malignancy models by degradation of BTK protein, Mino and JeKo-1 cells were treated with varying concentrations of Ibrutinib (0, 0.001, 0.01, 0.1, 1, 10 μM). Under these conditions, cell viability was determined by an MTS assay. Cytotoxicity was assayed by the determination of reduced tetrazolium (formazan) created by metabolically active cells as detected at 490 nm absorbance using a microplate reader (BMG Labtech, Cary, NC, USA).
# (§3) The exemplary compounds attenuated the viability of Mino and JeKo-1 cells in a concentration-dependent manner at 72 h post treatment. Results are shown in Table 1 for each exemplary compound.
# BTK = BTK (Homo sapiens, UniProt Q06187); assay: Degradation of BTK protein in Namalwa cells (Western blot; DC50, Dmax); conditions: for DC50: cell line not given
# Chain of BTK (Q06187 whole entry): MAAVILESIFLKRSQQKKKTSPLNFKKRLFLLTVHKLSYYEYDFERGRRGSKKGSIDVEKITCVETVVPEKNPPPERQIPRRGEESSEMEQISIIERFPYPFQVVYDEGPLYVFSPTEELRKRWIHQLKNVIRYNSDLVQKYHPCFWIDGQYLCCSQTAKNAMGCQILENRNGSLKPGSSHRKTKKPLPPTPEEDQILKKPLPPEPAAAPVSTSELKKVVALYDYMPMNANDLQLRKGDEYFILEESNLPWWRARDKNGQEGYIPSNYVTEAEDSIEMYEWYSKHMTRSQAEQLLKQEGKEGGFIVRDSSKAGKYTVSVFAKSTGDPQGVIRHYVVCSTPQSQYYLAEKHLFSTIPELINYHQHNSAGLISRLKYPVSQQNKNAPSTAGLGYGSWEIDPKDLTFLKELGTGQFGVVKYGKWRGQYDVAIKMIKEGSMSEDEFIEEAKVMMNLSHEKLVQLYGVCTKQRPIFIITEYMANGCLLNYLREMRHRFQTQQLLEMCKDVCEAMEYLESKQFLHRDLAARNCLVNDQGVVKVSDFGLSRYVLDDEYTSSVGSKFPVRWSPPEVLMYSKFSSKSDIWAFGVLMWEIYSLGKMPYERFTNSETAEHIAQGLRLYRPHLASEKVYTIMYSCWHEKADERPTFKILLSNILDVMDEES
# Mino cells = assay: Antiproliferative effect, MTS cell viability assay, Mino cells; type: cell-based; conditions: Homo sapiens, MINO, Mino mantle cell lymphoma cells; read-out: IC50 (anti-proliferation) Mino cells
# Protocol: as §1, §2, §3
# [1] = read-out: DC50 (BTK degradation), concentration giving 50% reduction of BTK expression level
# [2] = read-out: Dmax (BTK degradation)
Structure (SMILES),DC50 (BTK; [1]) [nM],Dmax (BTK; [2]) [%],Dmax (BTK) [%],DC50 (BTK; BTK degradation) [nM],IC50 (JeKo-1 cells) [nM],IC50 (Mino cells) [nM]
"NC(=O)c1c(-c2ccc(Oc3ccccc3)cc2)nn2c1NCC[C@H]2C1CCN(CC2CCN(C(=O)N3CCC(N4CCN(c5ccc6c(c5)C(=O)N(C5CCC(=O)NC5=O)C6=O)CC4)CC3)CC2)CC1 (stereo partly drawn) [Compound 403, (7S)-7-(1-((1-(4-(4-(2-(2,6-dioxopiperidin-3-yl)-1,3-dioxoisoindolin-5-yl)piperazin-1-yl)piperidine-1-carbonyl)piperidin-4-yl)methyl)piperidin-4-yl)-2-(4-phenoxyphenyl)-4,5,6,7-tetrahydropyrazolo[1,5-a]pyrimidine-3-carboxamide]",10 to 50,> 90,–,–,< 1000,< 1000
"Nc1ncnc2c1c(-c1ccc(Oc3ccccc3)cc1)nn2C1CCN(C2CCN(CC3CCN(c4ccc5c(c4)C(=O)N([C@@H]4CCC(=O)NC4=O)C5=O)CC3)CC2)CC1 [Compound 213a, (R)-5-(4-((4-(4-amino-3-(4-phenoxyphenyl)-1H-pyrazolo[3,4-d]pyrimidin-1-yl)[1,4′-bipiperidin]-1′-yl)methyl)piperidin-1-yl)-2-(2,6-dioxopiperidin-3-yl)isoindoline-1,3-dione]",–,–,> 90,< 10,< 1000,< 1000
"NC(=O)c1c(-c2ccc(Oc3ccccc3)cc2)nn2c1NCC[C@H]2C1CCN(CC2CCN(C(=O)N3CCC(C4CCN(c5ccc6c(c5)C(=O)N(C5CCC(=O)NC5=O)C6=O)CC4)CC3)CC2)CC1 (stereo partly drawn) [Compound 405, (7S)-7-(1-((1-(1′-(2-(2,6-dioxopiperidin-3-yl)-1,3-dioxoisoindolin-5-yl)-[4,4′-bipiperidine]-1-carbonyl)piperidin-4-yl)methyl)piperidin-4-yl)-2-(4-phenoxyphenyl)-4,5,6,7-tetrahydropyrazolo[1,5-a]pyrimidine-3-carboxamide]",10 to 50,> 90,–,–,1000 to 10000,< 1000
"NC(=O)c1c(-c2ccc(Oc3ccccc3)cc2)nn2c1NCC[C@H]2C1CCN(C(=O)N2CCC(CC3CCN(c4ccc5c(c4)CN(C4CCC(=O)NC4=O)C5=O)CC3)CC2)CC1 (stereo partly drawn) [Compound 294, (7S)-7-(1-(4-((1-(2-(2,6-dioxopiperidin-3-yl)-1-oxoisoindolin-5-yl)piperidin-4-yl)methyl)piperidine-1-carbonyl)piperidin-4-yl)-2-(4-phenoxyphenyl)-4,5,6,7-tetrahydropyrazolo[1,5-a]pyrimidine-3-carboxamide]",–,–,> 90,10 to 50,1000 to 10000,< 1000

# Now from value to molecule, other results behind:
DC50 (BTK; [1]) [nM],Dmax (BTK; [2]) [%],Dmax (BTK) [%],DC50 (BTK; BTK degradation) [nM],Structure (SMILES),IC50 (JeKo-1 cells) [nM],IC50 (Mino cells) [nM]
10 to 50,> 90,–,–,"Nc1ncnc2c1c(-c1ccc(Oc3ccccc3)cc1)nn2C1CCN(CCN2CCC(CN3CCC(c4ccc5c(c4)oc(=O)n5C4CCC(=O)NC4=O)CC3)CC2)CC1 (stereo not drawn) [Compound 545, 3-(6-(1-((1-(2-(4-(4-amino-3-(4-phenoxyphenyl)-1H-pyrazolo[3,4-d]pyrimidin-1-yl)piperidin-1-yl)ethyl)piperidin-4-yl)methyl)piperidin-4-yl)-2-oxobenzo[d]oxazol-3(2H)-yl)piperidine-2,6-dione]",1000 to 10000,< 1000
10 to 50,> 75,–,–,"NC1=NC=NC2C1C(c1ccc(Oc3ccccc3)cc1)=NN2C1CCN(C2CN(C(=O)N3CC(C4CN(c5ccc6c(c5)C(=O)N(C5CCC(=O)NC5=O)C6=O)C4)C3)C2)CC1 (stereo not drawn) [Compound 499, 5-(1′-(3-(4-(4-amino-3-(4-phenoxyphenyl)-3a,7a-dihydro-1H-pyrazolo[3,4-d]pyrimidin-1-yl)piperidin-1-yl)azetidine-1-carbonyl)-[3,3′-biazetidin]-1-yl)-2-(2,6-dioxopiperidin-3-yl)isoindoline-1,3-dione]",1000 to 10000,< 1000
